# Assays:
# Type in all cases: cell-based, human
# [1] = system: caspase-3 activity in HepG2; assay: Caspase-3 activity, Ac-DEVD-AMC fluorogenic substrate
# Experimental: The activity of caspase-3 was measured using the specific synthetic tetrapeptide fluorogenic substrate Ac-DEVD-AMC (BD Pharmigen Biosciences, San Diego, CA, USA). The assay was carried out in 96-well plates in a total volume of 100 µL, with 37 μM of the substrate and 50 µg of protein in the assay medium in 100 mM HEPES, pH 7.4, containing 200 mM NaCl, 0.2% CHAPS, 2 mM EDTA, 20% glycerol, and 5 mM dithiothreitol (DTT).
# In the presence of caspase-3, the Ac-DEVD-AMC substrate is hydrolyzed and the fluorogenic compound AMC is released. The activity was determined by continuous recording of the fluorescence at λex = 360 nm and λem = 460 nm at 37 °C for 2 h every 5 min in a Synergy HT microplate reader (BioTek, Winooski, VT, USA). Results were expressed as the percentage of the fluorescence in control cells.
# [2] = system: mitochondrial O2- in HepG2; assay: Mitochondrial O2- levels, MitoSOX probe, flow cytometry; details: HepG2, 5 and 10 µM, any of the doses or times assayed
# Experimental: The mitochondrial superoxide anion (O2^−) levels were measured using MitoSOX™Red reagent (Molecular Probes, Eugene, OR, USA), which permeates living cells where it selectively targets mitochondria and is oxidized by superoxide.
# HepG2 cells were cultured in a 6-well cell culture plate at a density of 2 × 10^5 cells per well 24 h before starting the treatment with R2-viniferin. The medium was renewed and cells were incubated with R2-viniferin as described above. After treatment, cells were washed and incubated with 20 μM H2DCF-DA or 4 μM MitoSOX™ for 30 min at 37 °C in the dark. The probe solution was then withdrawn and, after washing with PBS, the cells were trypsinized. The fluorescence intensity from living cells was measured by flow cytometry (DCF λex = 485/20 and λem = 528/20, MitoSOX λex = 485/20 and λem = 620/20) in a Beckman Coulter Gallios Flow cytometer in the General Research Services SGIker of the UPV/EHU. At least 10,000 events were detected. Data obtained from flow cytometry were analyzed using Summit 4.3 software (Dako, Hovedstaden, Denmark). Intracellular ROS and mitochondrial O2^− were expressed as the percentage of the fluorescence intensity in control cells at the same time of incubation.
# [3] = system: Bax and Bcl-2 expression in HepG2 cells; assay: Western blot analysis of Bax and Bcl-2 expression; details: 24 h
# Experimental: HepG2 cells were seeded in Petri dishes, incubated for 24 h and then treated with 5 and 10 µM R2-viniferin. Following 24 h of treatment, the cells were lysed in ice for 30 min with lysis buffer (20 mM HEPES pH 7.5, 1 mM NaF, 10 mM EGTA, 40 mM β-glycerophosphate, 1% NP-40, 2.5 mM MgCl2, 2 mM orthovanadate, and 1 mM DTT) to which 10 μL/mL of a protease inhibitor cocktail (Sigma-Aldrich, St Louis, USA) was added just before use. Cellular fragments were removed by centrifugation at 12,000× g for 10 min at 4 °C, and total protein concentration was determined by Bradford assay. The cellular protein extracts were boiled at 95 °C for 5 min in Laemmli buffer and separated by sodium dodecyl sulfate–polyacrylamide gel electrophoresis in 15% polyacrylamide gels. Proteins were transferred onto polyvinylidene difluoride (PVDF) membranes by electro-blotting with constant amperage (1 mA/cm^2) for 2 h in a wet chamber. After blocking for 1 h in 5% bovine serum albumin (BSA) Tris-buffered saline containing Tween 20 at room temperature, membranes were incubated overnight at 4 °C with antibodies to Bax (Santa Cruz Biotechnology, 1:500), Bcl-2 (Santa Cruz Biotechnology, 1:500) and glyceraldehyde-3-phosphate dehydrogenase (GAPDH, Abcam, 1:2000). After washing, membranes were probed with their corresponding secondary antibody conjugated to horseradish peroxidase for 1 h at room temperature. Specific proteins were detected using the enhanced chemiluminescence (ECL) substrate kit (Clarity Western ECL substrate, Bio-Rad, Hercules, California, USA) and the blots were imaged with the C-DiGit LI-COR blot scanner (Bonsai Advanced technologies S.L. Madrid, Spain). Intensities of target protein bands were determined by densitometry and normalized to the intensity of the loading control GAPDH protein.
# Hep3B = assay: Cell cycle analysis by flow cytometry (propidium iodide), Hep3B; details: 10 µM; for Cell cycle G0/G1 (percentage of cells) / Cell cycle G2/M (percentage of cells) / Cell cycle S (percentage of cells) / SubG0 (percentage of total cells): mean ± SE
# Experimental: Exponentially growing cells were seeded in 6-wells plates (200,000 cells HepG2 and 180,000 cells Hep3B) 24 h before R2-viniferin treatment. On the day of treatment, the culture medium was replaced with culture medium containing R2-viniferin or vehicle solution (control).
# After a treatment, cells were detached by trypsinization and fixed overnight at 4 °C in 70% ice-cold ethanol diluted in phosphate buffer saline (PBS). The ethanol was then discarded and the cells were washed with ice-cold PBS and finally stained with 25 μg/mL of propidium iodide (Sigma-Aldrich, St Louis, MO, USA) in the presence of 200 μg/mL ribonuclease A (Roche Biochemicals, Indianapolis, IN, USA) for 30 min at room temperature in the dark. Flow cytometry analysis (Beckman Coulter Gallios) was carried out from a total number of 10,000 events acquired in the General Research Services SGIker of the UPV/EHU. Analysis of the data was performed using Summit 4.3 software (Dako, Glostrup, Hovedstaden, Denmark).
compound,measurement,setting,value
Oc1ccc([C@H]2c3c(O)cc(O)cc3[C@H]3c4c(cc(O)cc4[C@@H]2c2cc(/C=C/c4cc(O)cc5c4[C@H](c4cc(O)cc(O)c4)[C@@H](c4ccc(O)cc4)O5)ccc2O)O[C@@H]3c2ccc(O)cc2)cc1 [R2-Viniferin],Effect on caspase-3 activity,"[1]; HepG2, 5 µM",increased caspase-3 activity at 72 h
same,Effect on caspase-3 activity,"[1]; HepG2, 10 µM",increased the caspase-3 activity significantly from 24 h to 72 h
same,Effect on mitochondrial O2-,[2],no significant effect
same,Bax/Bcl-2 ratio increase over control,"[3]; HepG2, 5 µM",39%
same,Bax/Bcl-2 ratio increase over control,"[3]; HepG2, 10 µM",123%
same,Expression of anti-apoptotic Bcl-2 proteins,"[3]; HepG2, 5 and 10 µM",downregulated
same,Expression of proapoptotic Bax protein,"[3]; HepG2, 5 and 10 µM",upregulated
same,Effect on cell cycle,Hep3B,did not alter cell cycle
same,Cell cycle G0/G1 (percentage of cells),Hep3B; 24 h,63.6 ± 8.0%
same,Cell cycle G2/M (percentage of cells),Hep3B; 24 h,20.7 ± 6.1%
same,Cell cycle S (percentage of cells),Hep3B; 24 h,15.7 ± 3.7%
same,SubG0 (percentage of total cells),Hep3B; 24 h,2.0 ± 0.6%
same,Cell cycle G0/G1 (percentage of cells),Hep3B; 48 h,73.7 ± 3.4%
same,Cell cycle G2/M (percentage of cells),Hep3B; 48 h,16.5 ± 2.0%
same,Cell cycle S (percentage of cells),Hep3B; 48 h,10.4 ± 1.6%
same,SubG0 (percentage of total cells),Hep3B; 48 h,1.8 ± 0.4%
same,Cell cycle G0/G1 (percentage of cells),Hep3B; 72 h,75.5 ± 3.9%
same,Cell cycle G2/M (percentage of cells),Hep3B; 72 h,14.7 ± 2.9%
same,Cell cycle S (percentage of cells),Hep3B; 72 h,9.8 ± 1.2%
same,SubG0 (percentage of total cells),Hep3B; 72 h,3.3 ± 0.7%

# Source: paper PMC7346113, “Screening of Natural Stilbene Oligomers from Vitis vinifera for Anticancer Activity on Human Hepatocellular Carcinoma Cells” (Antioxidants, 2020)
